Reference: US20250019520A1, “RELIEF PRECURSORS WITH ENHANCED STABILITY” (XSYS Germany GmbH, priority 2023, published 2025)

What was measured:
[1] = Thermal melt stability: onset time of crosslinking, SIS-rubber based formulation; assay type: physicochemical
Procedure: The thermal melt stability was assessed by recording the melt viscosity during heating. Crosslinking of the sample was recorded as an increase in viscosity. Oscillatory rheological measurements were carried out using a Kinexus lab+rheometer (Malvern Instruments Ltd., UK) under isothermal (T=160° C.) conditions. Data was recorded using the corresponding software rSPACE version 1.76 (Malvern Instruments Ltd., UK). As measurement geometry, parallel plates with a diameter of 2.5 cm of the upper plate were chosen. As sample, a disc of a relief precursor with a diameter of 2.5 cm was used. Prior to measurement, any foils (e.g. the cover sheet) and mask layers were removed from the relief precursor. Measurements were carried out in oscillation single frequency mode. The frequency was set to 1 Hz. The gap between the parallel plates was set constant to the respective sample thickness. Data points were recorded every 15 s. The complex shear viscosity η* was monitored over time t. The “onset time of crosslinking” was identified as “the time when the difference quotient Δη*/Δt is ≥1 Pa, with Δt=15 s”. A higher onset time indicates a higher thermal stability and stability towards mechanical stress.
In this example, another trial formulation based on a SIS tri-block copolymer was used. […]

[2] = Printing plate evaluation: halftone and tonal values at 146 lpi; settings: difference of tonal value of 5% halftone at 146 lpi versus plate without additional stabilizer
Procedure: To obtain a cliché, the laser ablatable mask on the front side was imaged using a TfxX 20 laser (Flint Group Germany GmbH, Germany, rotational speed: 10 to 11 rounds/s, power: 35 W (100% intensity)). The relief precursor was exposed to UV light from the backside through the carrier foil for 20 to 40 s and from the front side through the mask layer for 15 min. During the exposure at room temperature (being around 18-25° C.), no active heating was present. As a result of the crosslinking reaction due to the exposure, the temperature of the plate rose to around 40° C. (machine type: Combi FIII (Flint Group Germany GmbH, Germany), UVA intensity […], UVA tube type: Philips TL 80 W/10-R). […]
In this example, the effect of the stabilizer on the tonal values of the resulting printing plates was assessed since conventional stabilizers can impact tonal values as they may hinder curing. […] The stabilizer impact on the tonal value was calculated as the difference of the tonal value of the 5% halftone at 146 lpi of a plate without any additional stabilizer compared to the respective tonal value of a plate comprising a stabilizer.

[3] = Kneading trials at 180° C., onset of crosslinking seen as increase in torque; assay type: physicochemical; settings: kneading at 180° C. for 60 min, SBS binder plus stabilizer
Procedure: Kneading trials were carried out using a ThermoFisher Scientifc Haake kneading device equipped with a Haake PolyLab OS RheoDrive 7 control unit, a Haake Rheomix 600 OS heating and kneading chamber with Roller Rotors R600. The torque and the sample temperature were recorded using the software PolySoft, version 2.1.0.1. For the measurement, a temperature of 180° C. was applied. The measurement was carried out for 60 min, respectively. The components were added to the kneading device as solids and were allowed to be mixed in the kneading device.
In the given sample, the amount of stabilizer was varied in the range of 0 to 1.0 parts by weight and the excess was counterbalanced by the amount of binder, respectively.
An increase in torque indicated the onset of crosslinking of the SBS-rubber due to insufficient stabilization. Without additional stabilizer, an increase in torque was observed within the first 10 min of measurement time. With BHT as stabilizer, an increase in torque was detected after 28 min of heating at 180° C. With ascorbyl palmitate, the best result was achieved, where crosslinking was observed after 50 min.

CCCCCCCCCCCCCCCC(=O)OC[C@H](O)[C@H]1OC(=O)C(O)=C1O [Ascorbyl palmitate]
Effect on the onset time of crosslinking compared with an equimolar amount of BHT [1]: more than five times as high | Stabilizer impact on tonal value [2]: 0.8% | Onset time t/min [3]: 50 min
